Entries after “also recorded” stand apart in the source; their conditions may differ.
How the values were obtained:
[1] = system: Glioblastoma cells engineered to stably express wild-type PTEN; experiment: MTT viable cell assay, chemosensitivity of glioblastoma cells stably expressing wild-type PTEN; type: cell-based, human
Experimental: (§1) MTT assays. Cells were seeded (6000/well) into a 96 well plate. Twenty-four hours later the growth medium was changed to 1% serum and other reagents were added as described. Treatments proceeded for 24-72 h. At each time point the MTT assay was performed. MTT (10 ul of a 5 mg/ml stock solution dissolved in RPMI medium) is added to each well of cultures 4 hours before quantitation of viable cell number by measuring absorbance in each well at 650 nm with a microplate reader (Molecular Devises,) Agents added to cell LY294002 alone or in combination with etoposide. In addition, comparison was made between U87MG cells null for PTEN and reconstituted with PTEN protein. The absorbance of each well was measured at […] with a microplate reader.

[2] = system: U87MG glioblastoma cells, null for PTEN; experiment: MTT viable cell assay, chemosensitivity of parental PTEN-null U87MG glioblastoma cells; type: cell-based, human
Experimental: as §1

J774A.1 cells = experiment: Fcγ receptor mediated phagocytosis of IgG sensitized sRBCs by J774A.1 cells (phagocytic index); type: cell-based, mouse
Cbl = experiment: Tyrosine phosphorylation of Cbl after stimulation with sensitized sRBCs (Cbl IP, anti-phosphotyrosine immunoblot); type: cell-based, mouse
[3] = Tolerability of treatment in tumor-bearing mice; type: in vivo, mouse; conditions: 100 mg/kg daily i.p. in 100% DMSO for 2 weeks
Experimental: LY294002 was administered at a dosage of 100 mg/kg delivered daily by intraperitoneal injection in a small volume of 100% DMSO for 2 weeks, beginning 2 days after tumor implantation. […] Control mice were injected with small volume ([…]) of 100% DMSO. Daily measurement of tumor volume was performed in 3 coordinates using calipers.

U87MG cells [4] = experiment: Subcutaneous U87MG tumor growth in nude mice; type: in vivo, mouse; conditions: LY294002 100 mg/kg daily i.p.; control approximately 400 mm3
Experimental: LY294002 was administered at a dosage of 100 mg/kg delivered daily by intraperitoneal injection in a small volume of 100% DMSO for 2 weeks, beginning 2 days after tumor implantation. […] Control mice were injected with small volume ([…]) of 100% DMSO. Daily measurement of tumor volume was performed in 3 coordinates using calipers. To determine whether PI-3 kinase exerts control over angiogenesis or the growth of glial tumors in vivo the orthotopic brain tumor model described in Example I was utilized. To assess the effect of LY294002 on angiogenesis, we treated mice with LY294002 (100 mg/kg/dose×2 weeks) or DMSO as negative control. Tumor volumes were recorded daily (FIG. 15). On day 14 we stained cryostat sections from subcutaneous tumors for CD31 (PECAM). CD31 is an endothelial marker used to measure the microvessel density of these tumors. Microvessel density was assessed from multiple digitized images of CD31-stained tumor tissue at 100× magnification (3 fields were evaluated per tumor) and counted blindly for the number of CD31 positive microvessels per unit surface area as described (Weidner et al., (1991) N. Engl. J. Med. 324:1). […] Importantly, microvessel determinations were performed on day 7 after implantation to compare angiogenic activity of tumors of similar size. […]

U87MG cells [5] = experiment: Microvessel density (CD31 positive microvessels) in subcutaneous U87MG tumor tissue; type: in vivo, mouse; conditions: LY294002 100 mg/kg/dose x 2 weeks i.p.; controls (DMSO) 50±6
Experimental: Microvessel density (MVD) was determined for each brain tumor as described in Example I by CD31 staining, performed on cryostat sections (7 μm), fixed in acetone, blocked in 1% goat serum and stained with anti-CD31 antibody (Pharmingen, #01951D). Antibody staining was visualized with peroxidase-conjugated anti-mouse antibody and counter stained with hematoxylin. A negative control was performed on each tumor tissue stained with mouse IgG. Two sections from each tumor were scanned under low power magnification (40×) to identify areas of highest CD31 positive vessel density (Weidner et al. 1991), followed by digitization of 5 fields from this area. The digitized images representing one 100× field were counted for the number of CD31 positive vascular elements. Data was collected independently by two researchers in a blind study. The average number of microvessels per digitized 100× field was determined for 5 tumors per experimental group and analyzed by Student's t-test. […] Tumor volumes were recorded daily (FIG. 15). […] Microvessel density was assessed from multiple digitized images of CD31-stained tumor tissue at 100× magnification (3 fields were evaluated per tumor) and counted blindly for the number of CD31 positive microvessels per unit surface area as described (Weidner et al., (1991) N. Engl. J. Med. 324:1). […]

U87MG cells [6] = experiment: Orthotopic (intracranial) U87MG brain tumor model in nude mice; type: in vivo, mouse; conditions: examined on day 42; DMSO controls 4/5 by day 25
Experimental: To determine whether PTEN exerts control over angiogenesis and/or the growth of glial tumors, an orthotopic brain tumor model was developed in which PTEN-deficient tumor cells were genetically manipulated in vitro and then stereotactically injected into the frontal cerebral cortex of nude mice. The U87MG cell line employed in these studies is derived from a patient diagnosed with glioblastoma multiforme, a highly malignant and uniformly fatal brain tumor. This tumor and other human glioblastomas and glioblastoma cell lines contain a mutation in both PTEN alleles (U87MG cells have a homozygous mutation in PTEN resulting in a null genotype). We also examined the effect of LY294002 on tumor growth and incidence of brain tumor in a nude mouse model. In a previous study, in vivo activity of LY294002 against an ovarian carcinoma was observed. […] In other words, the carcinoma was not assessed in its natural milieu. Hu et al., Clin. Can. Res. 6:880). […] In control mice treated with DMSO, 4/5 had grossly visible and/or histologically confirmed brain tumors by H & E analysis by day 25 after implantation, whereas in 0/5 mice treated with LY294002 had grossly detectable or histologic evidence of intracranial tumor when examined on day 42.

With COc1cc([C@@H]2c3cc4c(cc3[C@@H](O[C@@H]3O[C@@H]5CO[C@@H](C)O[C@H]5[C@H](O)[C@H]3O)[C@H]3COC(=O)[C@H]23)OCO4)cc(OC)c1O [etoposide] the “increase in sensitivity to etoposide, wild-type PTEN versus PTEN-null cells” value ([1]; 0.047 μM versus 4.7 μM) was 100 fold, the IC50 ([1]; Homo sapiens, cells stably expressing wild-type PTEN, read-out: etoposide required to achieve a 50% cell kill) was 0.047 µM and the IC50 ([2]; Homo sapiens, U-87 MG, U87MG null for PTEN, or cells stably expressing catalytically inactive PTEN (R130M cells), read-out: etoposide required to achieve a 50% cell kill) was 4.7 µM. For the same molecule, the “cytotoxic activity of etoposide alone” value ([2]; etoposide 1 uM) was “minimal cytotoxic activity”.
In the case of Cc1ccc(-c2nn(C(C)(C)C)c3ncnc(N)c23)cc1 [PP1], the “inhibition of phagocytosis of IgG coated sRBCs (phagocytic index)” value (J774A.1 cells; PP1 10 μM, 1 h pretreatment, target to effector ratio 100:1) is reported as “completely abrogated phagocytosis; also recorded: blocks the phagocytosis significantly”, the “dose dependence of inhibition of phagocytosis” value (J774A.1 cells; PP1 1, 5, 10 μM) is reported as “dose dependent manner” and the “inhibition of phagocytosis of sensitized sRBCs” value (J774A.1 cells; preincubation of the cells, concentration not given) is reported as “inhibit this response”. The “tyrosine phosphorylation of Cbl induced by sensitized sRBCs” value (Cbl; PP1 10 μM, stimulation with sRBCs 5 minutes) was “inhibited significantly; also recorded: abrogated”, the “dose dependence of the effect on Cbl tyrosine phosphorylation” value (Cbl; data not shown) was “dose dependent” and the “basal tyrosine phosphorylation levels of Cbl” value (Cbl; resting cells) was “suppressed the basal tyrosine phosphorylation levels of Cbl”.
For O=c1cc(N2CCOCC2)oc2c(-c3ccccc3)cccc12 [LY294002], the “untoward effects in treated mice” value [3] was “No untoward effects”, the “tumor size at the time of microvessel analysis” value (U87MG cells [4]) was “approximately 35 mm3” and the “microvessel density (MVD), CD31 positive microvessels” value (U87MG cells [5]) was 22±5. For the same molecule, the “mice with grossly detectable or histologic evidence of intracranial tumor” value (U87MG cells [6]) was 0/5.

— patent US8163691B2, “Compositions and methods for identifying agents which modulate PTEN function and PI-3 kinase pathways” (Indiana University Research & Research Corporation, priority 2000, dated 2012)
